# Data from paper PMC7684686 (2020).
# How the values were obtained:
# [1] = system: F21T (DNA, G4) GGGTTAGGGTTAGGGTTAGGG; experiment: FRET melting; conditions: K+ 10 mM (KCl), Na+ 10 mM (cacodylate), Li+ 90 µM [sic]; Na-cacodylate pH 7.2; DNA 0.2 µM, LDR 5 (1 µM ligand); error ± 0.5 °C
# [2] = system: 22AG (DNA, G4) AGGGTTAGGGTTAGGGTTAGGG; experiment: photometric titration (Specfit); conditions: K+ (25 mM K2HPO4, 70 mM KCl), K-phosphate pH 7.0, DMSO cosolvent (10% in legend, 5% in methods)
# [3] = system: a2 (DNA, G4) ACAGGGGTGTGGGGACAGGGGTGTGGGG; experiment: photometric titration (Specfit); conditions: K+ (25 mM K2HPO4, 70 mM KCl), K-phosphate pH 7.0, DMSO cosolvent (10% in legend, 5% in methods)
# [4] = system: Fa2T (DNA, G4) ACAGGGGTGTGGGGACAGGGGTGTGGGG; experiment: FRET melting; conditions: K+ 10 mM (KCl), Na+ 10 mM (cacodylate), Li+ 90 µM [sic]; Na-cacodylate pH 7.2; DNA 0.2 µM, LDR 5 (1 µM ligand); error ± 0.5 °C
# [5] = system: FkitT (DNA, G4) AGGGAGGGCGCTGGGAGGAGGG; experiment: FRET melting; conditions: K+ 10 mM (KCl), Na+ 10 mM (cacodylate), Li+ 90 µM [sic]; Na-cacodylate pH 7.2; DNA 0.2 µM, LDR 5 (1 µM ligand); error ± 0.5 °C
# [6] = system: FmycT (DNA, G4) TGAGGGTGGGTAGGGTGGGTAA; experiment: FRET melting; conditions: K+ 10 mM (KCl), Na+ 10 mM (cacodylate), Li+ 90 µM [sic]; Na-cacodylate pH 7.2; DNA 0.2 µM, LDR 5 (1 µM ligand); error ± 0.5 °C
# [7] = system: FkrasT (DNA, G4) AGGGCGGTGTGGGAAGAGGA; experiment: FRET melting; conditions: K+ 10 mM (KCl), Na+ 10 mM (cacodylate), Li+ 90 µM [sic]; Na-cacodylate pH 7.2; DNA 0.2 µM, LDR 5 (1 µM ligand); error ± 0.5 °C
SMILES,ΔTm [1] [°C],log Kb [2],log Kb ([2]; overall 2:1 constant),log Kb [3],log Kb ([3]; overall 2:1 constant),ΔTm [4] [°C],ΔTm [5] [°C],ΔTm [6] [°C],ΔTm [7] [°C]
COc1ccc2cc3[n+](cc2c1OCCCn1cc(Cn2cnc4c(N)ncnc42)nn1)CCc1cc2c(cc1-3)OCO2,6.2,5.64 ± 0.15 log (K in M^-1),10.8 ± 0.2 log (K in M^-2),5.39 ± 0.14 log (K in M^-1),10.6 ± 0.2 log (K in M^-2),,,,
COc1ccc2cc3[n+](cc2c1OCCCCn1cc(Cn2cnc4c(N)ncnc42)nn1)CCc1cc2c(cc1-3)OCO2,6.4,5.23 ± 0.09 log (K in M^-1),10.7 ± 0.1 log (K in M^-2),,10.6 ± 0.3 log (K in M^-2),−0.1,,,
COc1ccc2cc3[n+](cc2c1OCCCCCCn1cc(Cn2cnc4c(N)ncnc42)nn1)CCc1cc2c(cc1-3)OCO2,12.9,,10.7 ± 0.1 log (K in M^-2),,11.1 ± 0.1 log (K in M^-2),1.1,2.7,5.0,10.1
COc1ccc2cc3[n+](cc2c1OCCn1cc(Cn2cnc4c(N)ncnc42)nn1)CCc1cc2c(cc1-3)OCO2,3.4,5.89 ± 0.07 log (K in M^-1),,5.27 ± 0.08 log (K in M^-1),10.3 ± 0.1 log (K in M^-2),−0.5,,,
COc1ccc2cc3[n+](cc2c1OCCCCCn1cc(Cn2cnc4c(N)ncnc42)nn1)CCc1cc2c(cc1-3)OCO2,9.9,5.09 ± 0.13 log (K in M^-1),10.8 ± 0.1 log (K in M^-2),,11.1 ± 0.2 log (K in M^-2),0.0,,,
